# Values of other authors as cited in US20230381267A1, “OXYTOCIN TREATMENT FOR HYPERMOBILE EHLERS-DANLOS SYNDROME” (Baylor College of Medicine, priority 2020, published 2023).
# Experiments:
# [1] = IV administration, irritable bowel syndrome
# [2] = intranasal, individuals with tension-type headache and migraine
# [3] = humans, preliminary research
compound,measurement,setting,value
CC[C@H](C)[C@@H]1NC(=O)[C@H](Cc2ccc(O)cc2)NC(=O)[C@@H](N)CSSC[C@@H](C(=O)N2CCC[C@H]2C(=O)N[C@@H](CC(C)C)C(=O)NCC(N)=O)NC(=O)[C@H](CC(N)=O)NC(=O)[C@H](CCC(N)=O)NC1=O [oxytocin],average effect (Cohen d),"across central and peripheral modes of administration and type of noxious stimulus (heat, electric)",2.28
same,duration of analgesic effects,after exogenous administration,approximately 1 hour
same,time at which analgesic effects were strongest,after exogenous administration,20 to 30 min
same,animal studies in which oxytocin increased pain tolerance,"systematic review Rash, AguirreCamacho and Campbell 2014",29 of 33
same,effect on pain tolerance,[1],significant effect
same,headache relief,[2],relieve headache in a dose-dependent manner
same,pain sensitivity,[3],decreases pain sensitivity
